Patent publication US10294211B2, “Process for isolating and purifying ambrox” (Givaudan SA, priority 2015, dated 2019)

Tests used:
[1] = Sensory analysis: GC-detection threshold and odour description; conditions: for GC-detection threshold / odour description: sensory analysis; for odour description: in words
Text: (§1) Purpose: to carry out a sensory analysis of (−)-Ambrox and the compounds (II), (III) and (IV) formed in the crude material and in the crystallised material.

[2] = Sensory analysis: odour threshold
Text: as §1

CC1(C)CCC[C@@]2(C)[C@H]1CC[C@]1(C)OCC[C@@H]21 [Compound (IV)]
GC-detection threshold [1]: 5 to 10 ng | odour description [1]: weak, IsoE, woody | odour description ([1]; listed as IV): weaker odour

CC1(C)CCC[C@]2(C)[C@H]3CCO[C@]3(C)CC[C@@H]12 [(−)-Ambrox]
Odour Threshold ([2]; sensory analysis): 0.2 ng/L

CC1(C)CCC[C@@]2(C)[C@H]1CC[C@@]1(C)OCC[C@@H]21 [Compound (III)]
odor weaker than (−)-Ambrox ([1]; compared with (−)-Ambrox): about 10 fold | GC-detection threshold [1]: circa 2 ng | odour description ([1]; listed as Compound III): essentially odorless | odour description ([1]; listed as III): weaker odour | GC-threshold relative to (−)-Ambrox ([1]; times higher than (−)-Ambrox): about 10 ×

C/C1=C/CCO[C@@]2(C)CCCC(C)(C)[C@@H]2CC1 [Compound (II)]
detection threshold ([2]; as stated in the description): > 500 ng/L | GC-detection threshold [1]: > 500 ng | odour description [1]: “odorless” | odour description ([1]; listed as II): weaker odour | odour description ([1]; listed as compound of formula (II)): practically odourless
